Assay results reported in US9187556B2, “SEMA5B peptides and vaccines including the same” (OncoTherapy Science, Inc., priority 2011, dated 2015).

Legend:
peptide-pulsed T2 cells [1] = assay: IFN-gamma ELISPOT assay on CTLs induced with peptide-pulsed DCs; assay type: cell-based, human; settings: CTLs from HLA-A*0201 positive donor, compared to control wells
Source text: Monocyte-derived dendritic cells (DCs) were used as antigen-presenting cells to induce cytotoxic T lymphocyte (CTL) responses against peptides presented on human leukocyte antigen (HLA). DCs were generated in vitro as described elsewhere (Nakahara S et al., Cancer Res 2003 Jul. 15, 63(14): 4112-8). Specifically, peripheral blood mononuclear cells isolated from a normal volunteer (HLA-A*0201 positive) by Ficoll-Paque plus (Pharmacia) solution were separated by adherence to a plastic tissue culture dish (Becton Dickinson) so as to enrich them as the monocyte fraction. The monocyte-enriched population was cultured in the presence of 1000 U/ml of granulocyte-macrophage colony-stimulating factor (R&D System) and 1000 U/ml of interleukin (IL)-4 (R&D System) in AIM-V Medium (Invitrogen) containing 2% heat-inactivated autologous serum (AS). After 7 days of culture, the cytokine-induced DCs were pulsed with 20 micro g/ml of each of the synthesized peptides in the presence of 3 micro g/ml of beta 2-microglobulin for 3 hr at 37 degree C. in AIM-V Medium. The generated cells appeared to express DC-associated molecules, such as CD80, CD83, CD86 and HLA class II, on their cell surfaces (data not shown). These peptide-pulsed DCs were then inactivated by X ray-irradiated (20 Gy) and mixed at a 1:20 ratio with autologous CD8+ T cells, obtained by positive selection with CD8 Positive Isolation Kit (Dynal). These cultures were set up in 48-well plates (Corning); each well contained 1.5×10^4 peptide-pulsed DCs, 3×10^5 CD8+ T cells and 10 ng/ml of IL-7 (R&D System) in 0.5 ml of AIM-V/2% AS medium. Three days later, these cultures were supplemented with IL-2 (CHIRON) to a final concentration of 20 IU/ml. On day 7 and 14, the T cells were further stimulated with the autologous peptide-pulsed DCs. The DCs were prepared each time by the same way described above. CTLs were tested against peptide-pulsed T2 cells after the 3rd round of peptide stimulation on day 21 (Tanaka H et al., Br J Cancer 2001 Jan. 5, 84(1): 94-9; Umano Y et al., Br J Cancer 2001 Apr. 20, 84(8): 1052-7; Uchida N et al., Clin Cancer Res 2004 December 15, 10(24): 8577-86; Suda T et al., Cancer Sci 2006 May, 97(5): 411-9; Watanabe T et al., Cancer Sci 2005 August, 96(8): 498-506).
(§1) To examine specific CTL activity, interferon(IFN)-gamma enzyme-linked immunospot (ELISPOT) assay and IFN-gamma enzyme-linked immunosorbent assay (ELISA) were performed. Peptide-pulsed T2 (1×10^4/well) was prepared as stimulator cells. Cultured cells in 48-well plate, CTL lines and CTL clones were used as responder cells. IFN-gamma ELISPOT assay and IFN-gamma ELISA assay were performed under manufacture procedure.

peptide-pulsed T2 cells [2] = assay: IFN-gamma ELISA of expanded CTL lines; assay type: cell-based, human; settings: target cells pulsed with corresponding peptide vs without peptide pulse
Method: CTLs were expanded in culture using the method similar to the one described by Riddell et al. (Walter E A et al., N Engl J Med 1995 Oct. 19, 333(16): 1038-44; Riddell S R et al., Nat Med 1996 February, 2(2): 216-23). A total of 5×10^4 CTLs were suspended in 25 ml of AIM-V/5% AS medium with 2 kinds of human B-lymphoblastoid cell lines, inactivated by Mitomycin C, in the presence of 40 ng/ml of anti-CD3 monoclonal antibody (Pharmingen). One day after initiating the cultures, 120 IU/ml of IL-2 were added to the cultures. The cultures were fed with fresh AIM-V/5% AS medium containing 30 IU/ml of IL-2 on days 5, 8 and 11 (Tanaka H et al., Br J Cancer 2001 Jan. 5, 84(1): 94-9; Umano Y et al., Br J Cancer 2001 Apr. 20, 84(8): 1052-7; Uchida N et al., Clin Cancer Res 2004 Dec. 15, 10(24): 8577-86; Suda T et al., Cancer Sci 2006 May, 97(5): 411-9; Watanabe T et al., Cancer Sci 2005 August, 96(8): 498-506).
as §1

peptide-pulsed T2 cells [3] = assay: IFN-gamma ELISA of CTL clones established by limiting dilution; assay type: cell-based, human; settings: target cells pulsed with each peptide
Method: The dilutions were made to have 0.3, 1, and 3 CTLs/well in 96 round-bottomed micro titer plate (Nalge Nunc International). CTLs were cultured with 1×10^4 cells/well of 2 kinds of human B-lymphoblastoid cell lines, 30 ng/ml of anti-CD3 antibody, and 125 U/ml of IL-2 in a total of 150 micro 1/well of AIM-VMedium containing 5% AS. 50 micro 1/well of IL-2 were added to the medium 10 days later so to reach a final concentration of 125 U/ml IL-2. CTL activity was tested on the 14th day, and CTL clones were expanded using the same method as described above (Uchida N et al., Clin Cancer Res 2004 Dec. 15, 10(24): 8577-86; Suda T et al., Cancer Sci 2006 May, 97(5): 411-9; Watanabe T et al., Cancer Sci 2005 August, 96(8): 498-506).
as §1

[4] = system: COS7 cells transfected with SEMA5B and HLA-A*0201; assay: Specific CTL activity against target cells expressing SEMA5B and HLA-A*0201; assay type: cell-based, African green monkey
Method: as §1
The cDNA encoding an open reading frame of target genes or HLA-A*0201 was amplified by PCR. The PCR-amplified product was cloned into expression vector. The plasmids were transfected into COS7, which is HLA-A*0201-null cell line, using lipofectamine 2000 (Invitrogen) according to the manufacturer's recommended procedures. After 2 days from transfection, the transfected cells were harvested with versene (Invitrogen) and used as the stimulator cells (5×10^4 cells/well) for CTL activity assay.

Row | Sequence | Peptide-specific CTL activity (IFN-gamma production) (peptide-pulsed T2 cells [1]) | IFN-gamma production of CTL lines (peptide-pulsed T2 cells [2]) | IFN-gamma production of CTL clones (peptide-pulsed T2 cells [3]) | CTL activity of CTL line against COS7 cells expressing both SEMA5B and HLA-A*0201 ([4]; COS7 transfected with both full length SEMA5B and HLA-A*0201) | CTL activity of CTL line against control COS7 cells ([4]; COS7 transfected with either full length SEMA5B or HLA-A*0201)
1 | MVLAGPLAV [SEQ ID NO: 8, 9 mer peptide derived from SEMA5B, start position 59; typical negative case] | not shown specific IFN-gamma production |  |  |  | 
2 | LLPSLTLLV [SEQ ID NO: 5, 9 mer peptide derived from SEMA5B, start position 70] | potent IFN-gamma production | potent IFN-gamma production | Potent IFN-gamma production |  | 
3 | GLLTLAVYL [SEQ ID NO: 7, 9 mer peptide derived from SEMA5B, start position 1049] | potent IFN-gamma production |  |  |  | 
4 | LLLPSLTLLV [SEQ ID NO: 27, 10 mer peptide derived from SEMA5B, start position 69] | potent IFN-gamma production | potent IFN-gamma production | Potent IFN-gamma production | potent CTL activity | no significant specific CTL activity was detected
5 | LIYGVFTTNV [SEQ ID NO: 34, 10 mer peptide derived from SEMA5B, start position 370] | potent IFN-gamma production | potent IFN-gamma production | Potent IFN-gamma production |  | 
